Results taken from paper PMC3102446, “Different Effects of Mg^2+ and Zn^2+ on the Two Sites for Alkylammonium Compounds in Pseudomonas aeruginosa Phosphorylcholine Phosphatase” (Enzyme Research, 2011).

How the values were obtained:
[1] = target: T1, Pseudomonas aeruginosa phosphorylcholine phosphatase (PchP) (Pseudomonas aeruginosa, UniProt Q9HTR2); assay: biochemical
T1 construct: His-tag fusion produced in E. coli BL21 CodonPlus; purified with EDTA to remove residual metal
From the text: inhibition of p-NPP hydrolysis, DYNAFIT global fit on Pseudomonas aeruginosa phosphorylcholine phosphatase (PchP)

[2] = test system: C[N+](C)(C)CCOP(=O)([O-])O; assay: purified protein; conditions: 0.25-2 mM Mg2+, 100 mM sodium acetate pH 5.0, 37 °C, kcat1 of productive EAS complex
From the text: Pi release assay, DYNAFIT global fit on Pseudomonas aeruginosa phosphorylcholine phosphatase (PchP)

T1 sequence (Q9HTR2 23-349): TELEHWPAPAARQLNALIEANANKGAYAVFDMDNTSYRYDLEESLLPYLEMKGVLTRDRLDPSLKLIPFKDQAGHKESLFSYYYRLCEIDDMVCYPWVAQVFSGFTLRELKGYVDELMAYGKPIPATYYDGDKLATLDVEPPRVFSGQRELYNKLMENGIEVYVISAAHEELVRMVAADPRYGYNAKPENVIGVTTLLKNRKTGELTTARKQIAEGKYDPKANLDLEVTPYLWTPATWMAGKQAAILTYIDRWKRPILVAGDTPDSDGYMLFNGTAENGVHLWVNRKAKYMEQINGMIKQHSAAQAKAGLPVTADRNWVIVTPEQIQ

Compound | Ki [1] [µM] | Km [2] [µM] | kcat [2] [s⁻¹]
CC(C)(N)CO [2-amino-2-methyl-1-propanol] | 210 ± 10 | – | –
C[N+](C)(C)CC(=O)[O-] [Betaine] | 1440 ± 90 | – | –
C[N+](C)(C)CCCl [Chlorocholine] | 120 ± 10 | – | –
C[N+](C)(C)CCO [Choline] | 100 ± 10 | – | –
C[N+](C)(C)CCCCCCCCCC[N+](C)(C)C [Decamethonium] | 80 ± 10 | – | –
C[N+](C)(C)CCCCCC[N+](C)(C)C [Hexamethonium] | 80 ± 10 | – | –
N[C@H](CO)Cc1c[nH]cn1 [L-histidinol] | 310 ± 80 | – | –
CN(C)C(=O)Oc1cccc([N+](C)(C)C)c1 [Neostigmine] | 570 ± 50 | – | –
C[N+](C)(C)C [Tetramethylammonium] | 35 ± 8 | – | –
CN(C)C [Trimethylamine] | 60 ± 10 | – | –
COc1cc2c3cc1Oc1cc(ccc1O)C[C@@H]1c4c(cc(OC)c(O)c4Oc4ccc(cc4)C[C@@H]3N(C)CC2)CC[N+]1(C)C [Tubocurarine] | 2510 ± 210 | – | –
Pseudomonas aeruginosa phosphorylcholine phosphatase (PchP) (Pseudomonas aeruginosa PAO1) | – | 21 ± 8 | 121 ± 8
